Consider 2 compounds from publication PMC10286718, “Amino Acid Starvation-Induced Glutamine Accumulation Enhances Pneumococcal Survival” (mSphere, 2023).

One test addresses T1, SPD1098 SBD1 (GlnP) (Streptococcus pneumoniae, UniProt A0A0H2ZPN9).
T1 construct: gene SPD_1098
T1 sequence (A0A0H2ZPN9 24-247): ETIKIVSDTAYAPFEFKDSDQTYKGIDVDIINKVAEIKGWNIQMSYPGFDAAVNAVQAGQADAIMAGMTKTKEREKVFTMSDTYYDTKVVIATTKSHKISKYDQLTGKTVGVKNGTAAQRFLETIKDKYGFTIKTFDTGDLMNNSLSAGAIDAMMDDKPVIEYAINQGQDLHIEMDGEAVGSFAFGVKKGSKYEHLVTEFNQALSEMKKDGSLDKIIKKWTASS
Description: isothermal titration calorimetry. The class given is binding. From the text: isothermal titration calorimetry on SPD1098 SBD1 (GlnP)
On the technique in general: Isothermal titration calorimetry measures the heat released or taken up as one component is titrated into another.

The target in another test is T2, SPD1098 SBD2 (GlnP) (Streptococcus pneumoniae, UniProt A0A0H2ZPN9).
T2 construct: gene SPD_1098
T2 sequence (A0A0H2ZPN9 262-488): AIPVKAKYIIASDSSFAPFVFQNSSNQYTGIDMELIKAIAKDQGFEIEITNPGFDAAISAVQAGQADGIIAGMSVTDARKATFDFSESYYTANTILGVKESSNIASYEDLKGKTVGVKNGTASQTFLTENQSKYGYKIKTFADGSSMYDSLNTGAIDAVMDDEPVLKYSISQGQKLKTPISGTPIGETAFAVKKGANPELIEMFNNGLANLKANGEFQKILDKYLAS
The test can be described thus: isothermal titration calorimetry. The class given is binding. The source says:
isothermal titration calorimetry on SPD1098 SBD2 (GlnP)

By Kd is commonly meant the concentration at which binding is half-saturated. At SPD1098 SBD1 (GlnP), `NC(=O)C[C@H](N)C(=O)O` [asparagine] gave a Kd of 1090 nM.
With `NC(=O)CC[C@H](N)C(=O)O` [glutamine], the equilibrium dissociation constant (Kd) on SPD1098 SBD2 (GlnP) was 890 nM.
